In brackets after ≈: the same amount, converted by molar mass. Where two headings read alike, the source gives them in different places.
How the values were obtained:
[1] = test system: Mtb 331/88 (i.e., H37Rv); assay: MIC, micro method in Šula's semisynthetic medium, drug-susceptible Mtb; type: cell-based, Mycobacterium tuberculosis; details: Mycobacterium tuberculosis, H37RV
[2] = test system: Mycobacterium avium 330/88; assay: MIC, micro method in Šula's semisynthetic medium, M. avium; type: cell-based
[3] = test system: Mycobacterium kansasii 6509/96; assay: MIC, micro method in Šula's semisynthetic medium, M. kansasii clinical isolate; type: cell-based; details: read-out: MIC M. kansasii 6509/96
[4] = 330/88, 336 h, read-out: MIC M. avium 330/88
[5] = 330/88, 504 h, read-out: MIC M. avium 330/88

## CCCNc1nnc(-c2cc([N+](=O)[O-])cc([N+](=O)[O-])c2)o1 [Compound 5c, 5-(3,5-Dinitrophenyl)-N-propyl-1,3,4-oxadiazol-2-amine]
[1]; 336 h, 14 days
  MIC: 4 µM (≈ 1.17 µg/mL)
[1]; 504 h, 21 days
  MIC: 4 µM (≈ 1.17 µg/mL)
[2]; [4]
  MIC: > 500 µM
[2]; [5]
  MIC: > 500 µM
[3]; 6509/96, 168 h
  MIC: 4 µM (≈ 1.17 µg/mL)
[3]; 6509/96, 336 h
  MIC: 8 µM (≈ 2.35 µg/mL)
[3]; 6509/96, 504 h
  MIC: 16 µM (≈ 4.69 µg/mL)

## CCCCCCCCCCCCCCCCNc1nnc(-c2cc([N+](=O)[O-])cc([N+](=O)[O-])c2)o1 [Compound 5p, 5-(3,5-Dinitrophenyl)-N-hexadecyl-1,3,4-oxadiazol-2-amine]
[1]; 336 h, 14 days
  MIC: 8 µM (≈ 3.8 µg/mL)
[1]; 504 h, 21 days
  MIC: 8 µM (≈ 3.8 µg/mL)
[2]; [4]
  MIC: 8 µM (≈ 3.8 µg/mL)
[2]; [5]
  MIC: 16 µM (≈ 7.61 µg/mL)
[3]; 6509/96, 168 h
  MIC: 2 µM (≈ 0.951 µg/mL)
[3]; 6509/96, 336 h
  MIC: 4 µM (≈ 1.9 µg/mL)
[3]; 6509/96, 504 h
  MIC: 8 µM (≈ 3.8 µg/mL)

## CCCCCCCCCCCCCCCCCNc1nnc(-c2cc([N+](=O)[O-])cc([N+](=O)[O-])c2)o1 [Compound 5q, 5-(3,5-Dinitrophenyl)-N-heptadecyl-1,3,4-oxadiazol-2-amine]
[1]; 336 h, 14 days
  MIC: 32 µM (≈ 15.7 µg/mL)
[1]; 504 h, 21 days
  MIC: > 32 µM
[2]; [4]
  MIC: 32 µM (≈ 15.7 µg/mL)
[2]; [5]
  MIC: 64 µM (≈ 31.3 µg/mL)
[3]; 6509/96, 168 h
  MIC: 8 µM (≈ 3.92 µg/mL)
[3]; 6509/96, 336 h
  MIC: 16 µM (≈ 7.83 µg/mL)
[3]; 6509/96, 504 h
  MIC: 32 µM (≈ 15.7 µg/mL)

## CCCCCCCCCCCCCCCCCCNc1nnc(-c2cc([N+](=O)[O-])cc([N+](=O)[O-])c2)o1 [Compound 5r, 5-(3,5-Dinitrophenyl)-N-octadecyl-1,3,4-oxadiazol-2-amine]
[1]; 336 h, 14 days
  MIC: > 32 µM
[1]; 504 h, 21 days
  MIC: > 32 µM
[2]; [4]
  MIC: > 1000 µM
[2]; [5]
  MIC: > 1000 µM
[2]; 330/88, read-out: MIC M. avium
  MIC: > 1000 µM
[3]; 6509/96, 168 h
  MIC: 64 µM (≈ 32.2 µg/mL)
[3]; 6509/96, 336 h
  MIC: 64 µM (≈ 32.2 µg/mL)
[3]; 6509/96, 504 h
  MIC: 64 µM (≈ 32.2 µg/mL)

## O=[N+]([O-])c1cc(-c2nnc(NCc3ccccc3)o2)cc([N+](=O)[O-])c1 [Compound 7a, N-Benzyl-5-(3,5-dinitrophenyl)-1,3,4-oxadiazol-2-amine]
[1]; 336 h, 14 days
  MIC: 0.125 µM (≈ 0.0427 µg/mL)
[1]; 504 h, 21 days
  MIC: 0.25 µM (≈ 0.0853 µg/mL)
[2]; [4]
  MIC: 4 µM (≈ 1.37 µg/mL)
[2]; [5]
  MIC: 4 µM (≈ 1.37 µg/mL)
[3]; 6509/96, 168 h
  MIC: 0.5 µM (≈ 0.171 µg/mL)
[3]; 6509/96, 336 h
  MIC: 1 µM (≈ 0.341 µg/mL)
[3]; 6509/96, 504 h
  MIC: 1 µM (≈ 0.341 µg/mL)

## COc1ccc(CNc2nnc(-c3cc([N+](=O)[O-])cc([N+](=O)[O-])c3)o2)cc1 [Compound 7b, 5-(3,5-Dinitrophenyl)-N-(4-methoxybenzyl)-1,3,4-oxadiazol-2-amine]
[1]; 336 h, 14 days
  MIC: ≤ 0.03 µM
[1]; 504 h, 21 days
  MIC: ≤ 0.03 µM
[2]; [4]
  MIC: 2 µM (≈ 0.743 µg/mL)
[2]; [5]
  MIC: 2 µM (≈ 0.743 µg/mL)
[3]; 6509/96, 168 h
  MIC: ≤ 0.03 µM
[3]; 6509/96, 336 h
  MIC: ≤ 0.03 µM
[3]; 6509/96, 504 h
  MIC: ≤ 0.03 µM

## O=[N+]([O-])c1cc(-c2nnc(NCc3ccc(Cl)cc3)o2)cc([N+](=O)[O-])c1 [Compound 7c, N-(4-Chlorobenzyl)-5-(3,5-dinitrophenyl)-1,3,4-oxadiazol-2-amine]
[1]; 336 h, 14 days
  MIC: 0.125 µM (≈ 0.047 µg/mL)
[1]; 504 h, 21 days
  MIC: 0.125 µM (≈ 0.047 µg/mL)
[2]; [4]
  MIC: 1 µM (≈ 0.376 µg/mL)
[2]; [5]
  MIC: 2 µM (≈ 0.751 µg/mL)
[3]; 6509/96, 168 h
  MIC: 0.125 µM (≈ 0.047 µg/mL)
[3]; 6509/96, 336 h
  MIC: 0.125 µM (≈ 0.047 µg/mL)
[3]; 6509/96, 504 h
  MIC: 0.25 µM (≈ 0.0939 µg/mL)

## O=[N+]([O-])c1cc(-c2nnc(NCc3ccc(Cl)cc3Cl)o2)cc([N+](=O)[O-])c1 [Compound 7d, N-(2,4-Dichlorobenzyl)-5-(3,5-dinitrophenyl)-1,3,4-oxadiazol-2-amine]
[1]; 336 h, 14 days
  MIC: 0.06 µM (≈ 0.0246 µg/mL)
[1]; 504 h, 21 days
  MIC: 0.125 µM (≈ 0.0513 µg/mL)
[2]; [4]
  MIC: 1 µM (≈ 0.41 µg/mL)
[2]; [5]
  MIC: 1 µM (≈ 0.41 µg/mL)
[3]; 6509/96, 168 h
  MIC: 0.06 µM (≈ 0.0246 µg/mL)
[3]; 6509/96, 336 h
  MIC: 0.125 µM (≈ 0.0513 µg/mL)
[3]; 6509/96, 504 h
  MIC: 0.125 µM (≈ 0.0513 µg/mL)

## O=[N+]([O-])c1cc(-c2nnc(NCc3ccc(Br)cc3)o2)cc([N+](=O)[O-])c1 [Compound 7e, N-(4-Bromobenzyl)-5-(3,5-dinitrophenyl)-1,3,4-oxadiazol-2-amine]
[1]; 336 h, 14 days
  MIC: 0.25 µM (≈ 0.105 µg/mL)
[1]; 504 h, 21 days
  MIC: 0.25 µM (≈ 0.105 µg/mL)
[2]; [4]
  MIC: 2 µM (≈ 0.84 µg/mL)
[2]; [5]
  MIC: 4 µM (≈ 1.68 µg/mL)
[3]; 6509/96, 168 h
  MIC: 0.25 µM (≈ 0.105 µg/mL)
[3]; 6509/96, 336 h
  MIC: 0.5 µM (≈ 0.21 µg/mL)
[3]; 6509/96, 504 h
  MIC: 0.5 µM (≈ 0.21 µg/mL)

## COc1ccc(CNc2nnc(-c3cc([N+](=O)[O-])cc([N+](=O)[O-])c3)s2)cc1 [Compound 8b, 5-(3,5-Dinitrophenyl)-N-(4-methoxybenzyl)-1,3,4-thiadiazol-2-amine]
[1]; 336 h, 14 days
  MIC: ≤ 0.03 µM
[1]; 504 h, 21 days
  MIC: ≤ 0.03 µM
[2]; [4]
  MIC: 4 µM (≈ 1.55 µg/mL)
[2]; [5]
  MIC: 4 µM (≈ 1.55 µg/mL)
[3]; 6509/96, 168 h
  MIC: 0.06 µM (≈ 0.0232 µg/mL)
[3]; 6509/96, 336 h
  MIC: 0.06 µM (≈ 0.0232 µg/mL)
[3]; 6509/96, 504 h
  MIC: 0.125 µM (≈ 0.0484 µg/mL)

## O=[N+]([O-])c1cc(-c2nnc(NCc3ccc(Cl)cc3)s2)cc([N+](=O)[O-])c1 [Compound 8c, N-(4-Chlorobenzyl)-5-(3,5-dinitrophenyl)-1,3,4-thiadiazol-2-amine]
[1]; 336 h, 14 days
  MIC: ≤ 0.03 µM
[1]; 504 h, 21 days
  MIC: ≤ 0.03 µM
[2]; [4]
  MIC: 2 µM (≈ 0.784 µg/mL)
[2]; [5]
  MIC: 2 µM (≈ 0.784 µg/mL)
[3]; 6509/96, 168 h
  MIC: 0.06 µM (≈ 0.0235 µg/mL)
[3]; 6509/96, 336 h
  MIC: 0.125 µM (≈ 0.049 µg/mL)
[3]; 6509/96, 504 h
  MIC: 0.125 µM (≈ 0.049 µg/mL)

## O=[N+]([O-])c1cc(-c2nnc(NCc3ccc(Cl)cc3Cl)s2)cc([N+](=O)[O-])c1 [Compound 8d, N-(2,4-Dichlorobenzyl)-5-(3,5-dinitrophenyl)-1,3,4-thiadiazol-2-amine]
[1]; 336 h, 14 days
  MIC: 0.125 µM (≈ 0.0533 µg/mL)
[1]; 504 h, 21 days
  MIC: 0.125 µM (≈ 0.0533 µg/mL)
[2]; [4]
  MIC: 2 µM (≈ 0.852 µg/mL)
[2]; [5]
  MIC: 2 µM (≈ 0.852 µg/mL)
[3]; 6509/96, 168 h
  MIC: 0.25 µM (≈ 0.107 µg/mL)
[3]; 6509/96, 336 h
  MIC: 0.5 µM (≈ 0.213 µg/mL)
[3]; 6509/96, 504 h
  MIC: 0.5 µM (≈ 0.213 µg/mL)

## CCCCCCCCCCCCSc1nnc(-c2cc([N+](=O)[O-])cc([N+](=O)[O-])c2)o1 [Compound 10, 2-(3,5-Dinitrophenyl)-5-(dodecylthio)-1,3,4-oxadiazole]
[1]; 336 h, 14 days
  MIC: 8 µM (≈ 3.49 µg/mL)
[1]; 504 h, 21 days
  MIC: 8 µM (≈ 3.49 µg/mL)
[2]; [4]
  MIC: 500 µM (≈ 218 µg/mL)
[2]; [5]
  MIC: 500 µM (≈ 218 µg/mL)
[3]; 6509/96, 168 h
  MIC: 2 µM (≈ 0.873 µg/mL)
[3]; 6509/96, 336 h
  MIC: 4 µM (≈ 1.75 µg/mL)
[3]; 6509/96, 504 h
  MIC: 8 µM (≈ 3.49 µg/mL)

— paper PMC12121777 (PLOS One, 2025)
